# Counter-ions that a name gives are not always drawn.
# Assays:
# [1] = target: human activated kallikrein enzyme (Homo sapiens, UniProt P03952); experiment: Inhibition of human activated plasma kallikrein, fluorogenic PFR-AMC substrate, 500 pM enzyme format; assay type: biochemical; details: 500 pM activated kallikrein; 300 μM PFR-AMC; 30 min preincubation; 10 min room temperature; pH 7.5; read-out: Primary Dose Response Assay: Average EC50
# How it was run: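 Using fluorogenic PFR-AMC at 300 μM, cleavage by 500 pM human activated kallikrein ran 10 min at room temperature, read at 460 nm emission (380 nm excitation). Enzyme and compounds were first preincubated 30 min in 20 mM Tris pH 7.5, 150 mM NaCl, 1 mM EDTA, 0.1% PEG-400, 0.1% Triton X-100.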
# plasma kallikrein = target: T1, plasma kallikrein (Homo sapiens, UniProt P03952); experiment: Neat Human Plasma Assay (Fluorogenic Peptide), contact pathway-activated (FXIIa) plasma; assay type: biochemical; details: human citrated plasma 78% final; 10 nM human FXIIa; PFR-AMC substrate; 5 minutes; room temperature
# T1 construct: PFR-AMC substrate
# T1 sequence (P03952 20-638): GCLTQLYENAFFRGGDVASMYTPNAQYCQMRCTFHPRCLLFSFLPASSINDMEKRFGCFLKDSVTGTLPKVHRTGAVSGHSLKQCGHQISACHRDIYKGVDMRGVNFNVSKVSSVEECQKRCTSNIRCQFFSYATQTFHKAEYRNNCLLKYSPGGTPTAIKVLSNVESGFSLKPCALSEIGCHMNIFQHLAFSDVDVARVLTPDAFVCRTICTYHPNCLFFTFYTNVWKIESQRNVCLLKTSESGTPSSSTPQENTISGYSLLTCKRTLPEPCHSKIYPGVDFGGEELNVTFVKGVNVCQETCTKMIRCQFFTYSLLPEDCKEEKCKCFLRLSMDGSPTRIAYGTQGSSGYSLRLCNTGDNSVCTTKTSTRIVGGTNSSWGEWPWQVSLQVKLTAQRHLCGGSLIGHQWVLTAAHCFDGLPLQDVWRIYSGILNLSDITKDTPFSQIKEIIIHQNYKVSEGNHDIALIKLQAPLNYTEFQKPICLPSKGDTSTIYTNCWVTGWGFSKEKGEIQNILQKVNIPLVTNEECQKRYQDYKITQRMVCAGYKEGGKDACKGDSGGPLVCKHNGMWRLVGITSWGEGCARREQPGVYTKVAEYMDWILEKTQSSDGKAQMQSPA
# Description: To analyze inhibition of plasma kallikrein in an ex vivo setting, the potency of compounds was measure in contact pathway-activated plasma assays. In a fluorogenic peptide substrate assay, test compounds dissolved in DMSO were added to sodium citrate collected human or rat plasma in a 96-well microplate. Alternatively, citrated plasma was collected from rats administered the compounds orally or by IV. 10 nM of human FXIIa (Enzyme Research Laboratories) diluted in PKa buffer (20 mM Tris-HCl, pH 7.5, 150 mM NaCl, 1 mM EDTA, 0.1% PEG-8000, and 0.1% Triton X-100) was added to the plasma, followed by the […] of the profluorescent, synthetic plasma kallikrein substrate PFR-AMC (also diluted in PKa buffer). Final plasma concentration in the reaction was 78%. Fluorescence was immediately monitored by excitation/emission wavelengths of 360 nm/480 nm respectively over a period of 5 minutes in a microplate reader. The resulting linear increase in fluorescence emission (reflecting PKa proteolysis of PFR-AMC substrate) was fit to extract a proteolytic rate (fluorescent units over time), and this rate was subsequently plotted against compound inhibitor concentration. Resulting plots were fit to a standard 4-parameter IC50/IC90 equation to determine min/max values, IC50/90, and slope. All experimental steps were performed at room temperature.
# Sequence of human activated kallikrein enzyme (P03952 391-638 limits assumed): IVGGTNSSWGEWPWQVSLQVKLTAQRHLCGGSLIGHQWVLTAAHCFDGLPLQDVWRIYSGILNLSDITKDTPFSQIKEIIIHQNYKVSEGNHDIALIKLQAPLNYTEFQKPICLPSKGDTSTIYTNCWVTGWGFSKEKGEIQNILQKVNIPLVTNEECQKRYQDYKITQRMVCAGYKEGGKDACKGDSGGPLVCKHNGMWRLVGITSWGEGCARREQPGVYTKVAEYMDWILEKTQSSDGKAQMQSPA
# Sequence of human activated kallikrein enzyme (P03952 20-390 partner limits assumed): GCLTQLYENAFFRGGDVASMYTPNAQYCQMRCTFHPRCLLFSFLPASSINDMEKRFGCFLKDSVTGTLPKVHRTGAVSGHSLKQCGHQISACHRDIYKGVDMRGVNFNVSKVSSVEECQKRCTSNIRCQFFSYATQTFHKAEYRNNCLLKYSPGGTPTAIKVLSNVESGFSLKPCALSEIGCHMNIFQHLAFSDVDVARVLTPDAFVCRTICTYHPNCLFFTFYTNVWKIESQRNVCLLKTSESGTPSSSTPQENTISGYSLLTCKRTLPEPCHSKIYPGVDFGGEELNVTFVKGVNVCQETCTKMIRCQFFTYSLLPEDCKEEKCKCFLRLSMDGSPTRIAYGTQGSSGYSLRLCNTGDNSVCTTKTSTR
SMILES,EC50 [1] [nM],IC90 (plasma kallikrein) [nM]
"Cc1cc2c(N)nccc2c(C)c1CNc1nccn2nc(Cc3cn4cc(C5CC5)ccc4n3)nc12 [Example 498, 6-(((2-((6-cyclopropylimidazo[1,2-a]pyridin-2-yl)methyl)-[1,2,4]triazolo[1,5-a]pyrazin-8-yl)amino)methyl)-5,7-dimethylisoquinolin-1-amine]",1 to 10,1000 to 5000
"Cc1cc2c(N)nccc2c(C)c1CNc1cc(OCc2nc3ncc(C4CC4)cn3n2)ncn1 [Example 384, 6-(((6-((6-cyclopropyl-[1,2,4]triazolo[1,5-a]pyrimidin-2-yl)methoxy)pyrimidin-4-yl)amino)methyl)-5,7-dimethylisoquinolin-1-amine]",1 to 10,1000 to 5000
"Cc1cc2c(N)nccc2c(C)c1CNc1cc(OCc2cc3cc(C4CC4)cc(CC(C)(C)C#N)n3n2)ncn1 [Example 510, 3-(2-(((6-(((1-amino-5,7-dimethylisoquinolin-6-yl)methyl)amino)pyrimidin-4-yl)oxy)methyl)-5-cyclopropylpyrazolo[1,5-a]pyridin-7-yl)-2,2-dimethylpropanenitrile]",1 to 10,1000 to 5000
"Cc1cc2c(N)nccc2c(C)c1CNc1cc(OCc2ccc3ncc(C4CC4)cc3c2)ccn1 [Example 239, 6-(((4-((3-cyclopropylquinolin-6-yl)methoxy)pyridin-2-yl)amino)methyl)-5,7-dimethylisoquinolin-1-amine]",1 to 10,> 5000
"Cc1cc2c(N)nccc2c(C)c1CNc1cc(OCc2cc3cc(C4CC4)ccn3n2)ncn1 [Example 400, 6-(((6-((5-cyclopropylpyrazolo[1,5-a]pyridin-2-yl)methoxy)pyrimidin-4-yl)amino)methyl)-5,7-dimethylisoquinolin-1-amine]",1 to 10,> 5000
"COc1ccc2nc(Cn3cc(C(=O)NCc4c(C)cc5c(N)nccc5c4C)cn3)ncc2c1 [Example 126, N-((1-amino-5,7-dimethylisoquinolin-6-yl)methyl)-1-((6-methoxyquinazolin-2-yl)methyl)-1H-pyrazole-4-carboxamide]",10 to 100,–
"COC(=O)C(c1cn2cc(C)ccc2n1)n1cc(C(=O)NCc2c(C)cc3c(N)nccc3c2C)cn1 (stereo not shown) [Example 14, methyl 2-(4-(((1-amino-5,7-dimethylisoquinolin-6-yl)methyl)carbamoyl)-1H-pyrazol-1-yl)-2-(6-methylimidazo[1,2-a]pyridin-2-yl)acetate]",100 to 1000,–
"Cc1cc2c(N)nccc2c(C)c1CNc1cc(OCc2cnc3ccccn23)cnn1 [Example 414, 6-(((5-(imidazo[1,2-a]pyridin-3-ylmethoxy)pyridazin-3-yl)amino)methyl)-5,7-dimethylisoquinolin-1-amine]",> 1000,–
"Cc1cc2c(N)nccc2c(C)c1CNC(=O)c1cnn(Cc2ccc(CC(=O)N3C[C@@H]4[C@H](CF)[C@@H]4C3)cc2)c1 [Example 206, N-((1-amino-5,7-dimethylisoquinolin-6-yl)methyl)-1-(4-(2-((1R,5S,6s)-6-(fluoromethyl)-3-azabicyclo[3.1.0]hexan-3-y1)-2-oxoethyl)benzyl)-1H-pyrazole-4-carboxamide]",1 to 10,–
"Nc1nccc2cc(CNc3cc(OCc4ccc(Cn5cccn5)cc4)ncn3)c(C(F)(F)F)cc12 [Example 535, 6-(((6-((4-((1H-pyrazol-1-yl)methyl)benzyl)oxy)pyrimidin-4-yl)amino)methyl)-7-(trifluoromethyl)isoquinolin-1-amine]",100 to 1000,–
"Cc1cc2c(N)nccc2c(C)c1CNC(=O)c1cnn(Cc2ccc(CC(=O)N3CC4CC4(C(=O)O)C3)cc2)c1 (stereo not shown) [Example 216, 3-(2-(4-((4-(((1-amino-5,7-dimethylisoquinolin-6-yl)methyl)carbamoyl)-1H-pyrazol-1-yl)methyl)phenyl)acetyl)-3-azabicyclo[3.1.0]hexane-1-carboxylic acid]",10 to 100,–

# Second part, the compound after the results:
EC50 [1] [nM],IC90 (plasma kallikrein) [nM],SMILES
< 1,> 5000,"Cc1cc2c(N)nccc2c(C)c1CNc1cc(NCc2cn3cc(Cl)ccc3n2)ncn1 [Example 313, N^4-((1-amino-5,7-dimethylisoquinolin-6-yl)methyl)-N^6-((6-chloroimidazo[1,2-a]pyridin-2-yl)methyl)pyrimidine-4,6-diamine, formic acid salt]"
< 1,≤ 1000,"Cc1cc2c(N)nccc2c(C)c1CNc1cc2c(cn1)cnn2Cc1cn2cc(C3CC3)ccc2n1 [Example 268, 6-(((1-((6-cyclopropylimidazo[1,2-a]pyridin-2-yl)methyl)-1H-pyrazolo[4,3-c]pyridin-6-yl)amino)methyl)-5,7-dimethylisoquinolin-1-amine]"
< 1,≤ 1000,"Cc1cc2c(N)nccc2c(C)c1CNc1cc(N2C[C@@H](O)C[C@@H]2c2cn3cc(C4CC4)ccc3n2)ncn1 [Example 513, (3S,5R)-1-(6-(((1-amino-5,7-dimethylisoquinolin-6-yl)methyl)amino)pyrimidin-4-yl)-5-(6-cyclopropylimidazo[1,2-a]pyridin-2-yl)pyrrolidin-3-ol]"
1 to 10,> 5000,"Cc1cc2c(N)nccc2c(C)c1CNc1cc(OCc2nc3ccc(C4CC4)cn3n2)ncn1 [Example 388, 6-(((6-((6-cyclopropyl-[1,2,4]triazolo[1,5-a]pyridin-2-yl)methoxy)pyrimidin-4-yl)amino)methyl)-5,7-dimethylisoquinolin-1-amine]"
< 1,≤ 1000,"Cc1cc2c(N)nccc2c(C)c1CNc1cc2c(cn1)ncn2Cc1cc2cc(C3CC3)cnc2s1 [Example 504, 6-(((1-((5-cyclopropylthieno[2,3-b]pyridin-2-yl)methyl)-1H-imidazo[4,5-c]pyridin-6-yl)amino)methyl)-5,7-dimethylisoquinolin-1-amine]"
< 1,> 5000,"Cc1cc2c(N)nccc2c(C)c1CNc1cc(OCc2ccc(Cn3cccn3)cc2)ncn1 [Example 251, 6-(((6-((4-((1H-pyrazol-1-yl)methyl)benzyl)oxy)pyrimidin-4-yl)amino)methyl)-5,7-dimethylisoquinolin-1-amine]"
< 1,≤ 1000,"Cc1cc2c(N)nccc2c(C)c1CNc1nccc2cn(Cc3cn4nc(C5CC5)ccc4n3)nc12 [Example 265, 6-(((2-((6-cyclopropylimidazo[1,2-b]pyridazin-2-yl)methyl)-2H-pyrazolo[3,4-c]pyridin-7-yl)amino)methyl)-5,7-dimethylisoquinolin-1-amine]"
< 1,≤ 1000,"Cc1cc2c(N)nccc2c(C)c1CNc1cc2c(cn1)ncn2Cc1cn2cc(C3CC3)ccc2n1 [Example 499, 6-(((1-((6-cyclopropylimidazo[1,2-a]pyridin-2-yl)methyl)-1H-imidazo[4,5-c]pyridin-6-yl)amino)methyl)-5,7-dimethylisoquinolin-1-amine]"
< 1,> 5000,"Cc1cc2c(N)nccc2c(C)c1CNc1cc(OCc2cn3cc(C4CC4)ccc3n2)ccn1 [Example 284, 6-(((4-((6-cyclopropylimidazo[1,2-a]pyridin-2-yl)methoxy)pyridin-2-yl)amino)methyl)-5,7-dimethylisoquinolin-1-amine]"
< 1,1000 to 5000,"Cc1cc2c(N)nccc2c(C)c1CNc1cc(Cc2cn3cc(C4CC4)ccc3n2)ncn1 [Example 403, 6-(((6-((6-cyclopropylimidazo[1,2-a]pyridin-2-yl)methyl)pyrimidin-4-yl)amino)methyl)-5,7-dimethylisoquinolin-1-amine]"
< 1,1000 to 5000,"Cc1cc2c(N)nccc2c(C)c1CNc1cc(NCc2cn3nc(C4CC4)ccc3n2)ncn1 [Example 242, N4-((1-amino-5,7-dimethylisoquinolin-6-yl)methyl)-N6-((6-cyclopropylimidazo[1,2-b]pyridazin-2-yl)methyl)pyrimidine-4,6-diamine]"
< 1,1000 to 5000,"Cc1cc2c(N)nccc2c(C)c1CNc1cc(OCc2cn3nc(C4CC4)ccc3n2)ncn1 [Example 261, 6-(((6-((6-cyclopropylimidazo[1,2-b]pyridazin-2-yl)methoxy)pyrimidin-4-yl)amino)methyl)-5,7-dimethylisoquinolin-1-amine]"
< 1,–,"Cc1cc2c(N)nccc2c(C)c1CNC(=O)c1cnn(Cc2ccc3nc(C)c(C)nc3c2)c1 [Example I-464, N-((1-amino-5,7-dimethylisoquinolin-6-yl)methyl)-1-((2,3-dimethylquinoxalin-6-yl)methyl)-1H-pyrazole-4-carboxamide]"
< 1,–,"Cc1cc2c(N)nccc2c(C)c1CNC(=O)c1cnn(Cc2ccc(CC(=O)N(C)C)cc2)c1 [Example 63, N-((1-amino-5,7-dimethylisoquinolin-6-yl)methyl)-1-(4-(2-(dimethylamino)-2-oxoethyl)benzyl)-1H-pyrazole-4-carboxamide]"
< 1,–,"CNC(=O)Cc1ccc(Cn2cc(C(=O)NCc3c(C)cc4c(N)nccc4c3C)cn2)cc1 [Example 230, N-((1-amino-5,7-dimethylisoquinolin-6-y1)methy1)-1-(4-(2-(methylamino)-2-oxoethyl)benzyl)-1H-pyrazole-4-carboxamide]"

# Reference: US20260374754A1, “N-((ISOQUINOLIN-6-YL)METHYL)-1H-PYRAZOLE-4-CARBOXAMIDE DERIVATIVES AS PLASMA KALLIKREIN INHIBITORS FOR THE TREATMENT OF HEREDITARY ANGIODEMA” (Takeda Pharmaceutical Company Limited, priority 2022, published 2026)
